This note sets out measurements from US20090325262A1, “Immobilization of biological molecules onto surfaces coated with monolayers” (SURFACE LOGIX, INC., priority 2001, published 2009).

Test [1] in a line: SPR of immobilization of cutinase to SAM terminated in phosphonate binding partner. The note with it: PBS pH 7.4; not removed by SDS 0.5 mg/mL. As for the experimental part: A self-assembled monolayer (SAM) terminated in a phosphonate binding partner moiety was prepared. The ligand was present at a low density mixed with tri(ethylene glycol) groups, which resist non-specific protein adsorption. The immobilization of cutinase to the monolayer was characterized by SPR spectroscopy. Phosphate buffered saline (pH 7.4) was flowed over the monolayer for 2 min to establish a baseline, followed by a solution of protein in the same buffer for 10 min to observe binding. Finally, the protein solution was replaced with buffer for 6 min to quantitate the amount of protein that was irreversibly immobilized.

Test [2] addresses T1, β1,4-galactosyltransferase (Bos taurus, UniProt P08037).
T1 sequence (P08037 1-402): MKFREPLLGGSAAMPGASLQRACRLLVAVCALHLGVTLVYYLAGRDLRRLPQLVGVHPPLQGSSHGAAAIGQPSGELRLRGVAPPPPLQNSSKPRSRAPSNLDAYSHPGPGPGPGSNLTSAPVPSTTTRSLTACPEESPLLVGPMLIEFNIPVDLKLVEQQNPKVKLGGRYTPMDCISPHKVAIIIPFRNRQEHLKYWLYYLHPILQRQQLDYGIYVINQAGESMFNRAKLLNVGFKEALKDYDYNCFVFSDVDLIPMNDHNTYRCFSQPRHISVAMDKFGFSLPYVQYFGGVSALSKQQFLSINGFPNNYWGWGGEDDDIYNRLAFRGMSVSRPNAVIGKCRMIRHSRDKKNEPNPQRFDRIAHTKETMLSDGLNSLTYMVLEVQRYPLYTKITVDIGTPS
In words: Glycosyltransferase assay on immobilized carbohydrates (UDP [14C] galactose, phosphorimaging). The format is biochemical, bovine. The note with it: three immobilized carbohydrate substrates; UDP [^14C] galactose 3.5 μM. The protocol: FIG. 12 depicts the results of a Glycosyltransferase assay. The surface comprises three different carbohydrate substrates defined by columns and a control column (no substrate). Each row was reacted with a different concentration of β1,4-galactosyltransferase and a constant concentration of sugar donor (UDP [^14C] galactose, 3.5 μM). The reaction was detected by phosphorimaging.
Referring to FIG. 12, in the glycosyltransferase assay, various carbohydrates were immobilized using a thiol chemical tag to bond to a monolayer thiolate bearing a maleimide group. A glycosyltransferase enzyme was added to the immobilized carbohydrates. The ability of the enzyme to add radioactively labeled sugars to the immobilized carbohydrates was measured. In the glycosyltransferase assay the enzyme that was employed is bovine recombinant β1,4-galactosyltransferase. Preferably, the enzyme is at a concentration of about 10 pM to about 100 uM. More preferably, the enzyme is at a concentration of about 100 pM to about 1 uM.
Detection of glycosylation of the immobilized carbohydrate substrates on the base plate was performed radiometrically. The incorporation of ^14C was quantified by exposing a storage phosphor screen to the plate and then imaging it on a Variable Mode Imager (Typhoon 8600; Molecular Dynamics, Sunnyvale, Calif.). […]

Test [3] has as its target streptavidin (Streptomyces avidinii, UniProt P22629). Put plainly: SPR of streptavidin binding to maleimide SAM treated with biotinylated model peptides. Conditions: SAM presenting maleimide at 2%, then streptavidin. The text has this: Michael acceptor-derivatized surfaces like that depicted in FIG. 1 are well adapted for selectively immobilizing and orienting functional organic molecules for such uses as biosensors, high throughput assays, binding assays, enzymatic assays and cell cultures. […] Surface binding was detected using biotinylated, cysteine-containing peptides and streptavidin. SAMs presenting the maleimide group at a density of 2% were applied to gold-coated coverslips according to the Examples. The SAM coated coverslips were each treated with solutions containing various reactive molecules dissolved in phosphate buffer (pH 6), and the reactivity of the surface was characterized by flowing the protein streptavidin, which selectively binds biotin, over the SAM. Streptavidin binding was quantitated by surface plasmon resonance.
Referring to FIG. 3, sensorgram (A), the SAM-coated coverslip was treated with a solution of the model biotinylated peptide biotin-NH-Arg-Asp-Cys-CONH2 (1.2 mM) for 12 minutes. 2280 RU of streptavidin binding was observed. Sensorgram (B) was obtained using a solution containing a mixture of the model peptide (0.6 mM) and lysine (16 mM). […]
SPR was performed with a Biacore 3000 instrument. Gold-coated glass microscope cover glass presenting SAMs to be analyzed were mounted in SPR cartridges. […]

Test [4] can be described thus: SPR of biospecific-covalent attachment of cutinase-fusion protein to PNPP-terminated surfaces. The test is classed as binding. The protocol: A gold chip that presents 1.5% maleimide groups in a background of EG3 was exposed to a 5 mM methanolic solution of (8-mercapto-octyl)-phosphonic acid ethyl ester 4-nitro-phenyl ester—the bifunctional molecule (compound 5; HS-PNPP)—for 1 hour. During this process the thiol group of HS-PNPP reacts with the maleimide groups at the surface and results in 1.5% of a monolayer of the PNPP ligand being presented at the surface.
The chip created above was then loaded into the SPR machine that contacts a microfluidic manifold to the gold chip to allow different solutions to be delivered to the surface in up to 4 flow channels. The following fluidic protocol was then applied to the surface and the SPR signal—which measures the mass of protein that adsorbs to the surface—was measured as a function of time:
t=0 to 300 s. Flow channels 1-3 (Fc=1 to 3) were all exposed to 20 mM tris (pH 7.4) buffer t=300 to 1500 s. Fc=1 to 3 were then exposed to 3 different solutions: Fc=1: 500 ug/mL fibrinogen in 20 mM tris (pH 7.4) buffer Fc=2: 40 microM of cutinase fused to hexahistidine (cutinase-his6) in 20 mM tris buffer Fc=3: 40 microM of cutinase-his6 pre-mixed with 100 microM of PNPP t=1500 to 2250 s. Fc=1 to 3 were all exposed to 20 mM tris (pH 7.4) buffer t=2250 to 2850 s. Fc=1 to 3 were all exposed to 8 mM SDS in 20 mM tris (pH 7.4) buffer t>2850 s. Fc=1 to 3 were all exposed to 20 mM tris (pH 7.4) buffer

Test [5] in a line: SPR of protein adsorption on biotin-presenting maleimide/EG3 mixed SAM surface (specific binding and NSB). The protocol: FIG. 4 is a surface plasmon resonance sensorgram of a SAM presenting maleimide at a density of 2%. The SAM-coated coverslip was treated with the biotinylated, thiol-containing, model peptide biotin-NH-Arg-Asp-Cys-CONH2 (1.2 mM) for 12 minutes. Afterwards, a solution of the “sticky” protein fibrinogen (0.5 mg/mL) was flowed over the surface. Only 60 RU of adsorption was observed. Another coverslip was treated with the model peptide solution and then treated with streptavidin that had been pre-incubated with biotin.
A gold chip that presents 1.5% maleimide groups in a background of EG3 was loaded into an SPR machine (Biacore 3000). Two flow channels over this chip were simultaneously exposed to cysteine-biotin that reacts with the maleinide in order to present 1.5% biotin at the surface. Subsequently, one channel was exposed to 70 ug/mL of streptavidin and then one channel was exposed to 500 ug/mL of fibrinogen.
SPR was performed with a Biacore 3000 instrument. Gold-coated glass microscope cover glass presenting SAMs to be analyzed were mounted in SPR cartridges. All experiments used a flow rate of 10 μL/min.

With “Cutinase: recombinant Fusarium solani pisi cutinase expressed in E. coli”, in test [1], the “binding to phosphonate monolayer” value is reported as “bound irreversibly to the surface”.
Regarding GlcNAc, the “substrate for the enzyme” value in test [2] is given as “only the immobilized GlcNAc was a substrate”.
biotin-NH-Arg-Asp-Cys-CONH2 had a streptavidin binding in test [3] (peptide 1.2 mM for 12 minutes) of 2280 RU.
In the case of biotin-NH-Arg-Asp-Lys-CONH2, in test [3] (peptide 4 mM for 12 minutes), the “streptavidin binding” value is “no streptavidin binding”.
“cutinase-his6: cutinase fused to hexahistidine” returned a protein immobilized in test [4] (Fc=2, 40 microM in 20 mM tris buffer) of 1150 RU. For the same substance, in test [4] (Fc=2, after 8 mM SDS wash), the “protein immobilized after SDS wash” value amounted to 1080 RU. Besides, in test [4] (Fc=3, 40 microM pre-mixed with 100 microM PNPP), the “adsorption after preincubation with PNPP” value is recorded as 30 RU.
Take fibrinogen: in test [4] (Fc=1, 500 ug/mL fibrinogen), the “non-specific binding to PNPP surface” value is listed as “did not stick to this surface”. The “signal change caused by adsorption (NSB)” value in test [5] (1.5% maleimide in EG3 reacted with cysteine-biotin, 500 ug/mL fibrinogen) was found to be 90 RU. The “adsorption (non-specific)” value in test [5] (SAM 2% maleimide treated with biotin-NH-Arg-Asp-Cys-CONH2, fibrinogen 0.5 mg/mL) stood at 60 RU.
With “streptavidin: protein which selectively binds biotin”, the “signal change caused by adsorption” value in test [5] (1.5% maleimide in EG3 reacted with cysteine-biotin, 70 ug/mL streptavidin) came out at 2100 RU.
